Data from patent US20220213178A1, “Enhanced Transfection” (The University of Nottingham, priority 2019, published 2022).

What was measured:
Assay type in all cases: cell-based
[1] = tested on: LCL lymphoblastoid human B cells; experiment: GET transfection of pCMV-Gluc pDNA into LCL cells (FIG. 3); settings: 20,000 cells, 24 hours post-transfection of 1 μs pCMV-Gluc pDNA with GET; short exposures of TPA
Procedure: Experiment on 20,000 LCL lymphoblastoid human B cells, measured at 24 hours post-transfection of […] pCMV-Gluc pDNA with GET. T=TPA(μM), S=SAHA (μM). TPA is shown to have the most effect on transfection in LCL cells, and it is enhanced by SAHA. There is effectively no transfection without these modulators.

[2] = tested on: T2 hybrid human T/B cells; experiment: GET transfection of pCMV-Gluc pDNA into T2 cells (FIG. 1); settings: 20,000 cells, 24 hours post-transfection of 1 μg pCMV-Gluc pDNA with GET
Procedure: Experiment on 20,000 T2 hybrid human T/B cells, measured at 24 hours post-transfection of 1 μg pCMV-Gluc pDNA with GET. T=TPA(μM), S=SAHA (μM). TPA is shown as the major effect on transfection efficiency in T2 cells.

[3] = tested on: RAW264.7 mouse macrophage cells; experiment: GET transfection of pCMV-Gluc pDNA into RAW264.7 cells (FIG. 2); settings: 20,000 cells, 24 hours post-transfection of 1 μg pCMV-Gluc pDNA with GET
Procedure: Experiment on 20,000 RAW264.7 mouse macrophage cells, measured at 24 hours post-transfection of 1 μg pCMV-Gluc pDNA with GET. T=TPA(μM), S=SAHA (μM).

For `CCCCCCCCCCCCCC(=O)O[C@@H]1[C@@H](C)[C@@]2(O)[C@@H](C=C(CO)C[C@]3(O)C(=O)C(C)=C[C@@H]23)[C@@H]2C(C)(C)[C@]12OC(C)=O` [TPA, phorbol 12-myristate 13-acetate], the “transfection of LCL cells (Gluc)” value [1] was “significantly enhances transfection” and the “transfection of T2 cells (Gluc)” value [2] was “significantly enhances transfection”.
For `O=C(CCCCCCC(=O)Nc1ccccc1)NO` [SAHA, suberoylanilide hydroxamic acid], the “transfection of RAW264.7 cells (Gluc)” value [3] was “significantly enhances transfection” and the “transfection of LCL cells (Gluc)” value [1] was “significantly enhances transfection”.
